Assay results published in PubChem BioAssay AID1963837 (Molecular Pharmacology Branch, DTP, NCI, 2024).

Test system: 843126-344-R-J1-PDC complex spheroid viability
Test: Anticancer human tumor 843126-344-R-J1-PDC patient-derived melanoma cell line growth inhibition [POLQ]
Conditions: for IC50: curve of first compound; for viability, T/C: stronger effect = lower value
Method: Multicellular complex tumor spheroid response to Polymerase (POL) inhibitors (novobiocin, ART-558, RP6685) in combination with a variety of drugs and investigational agents in selected tumor cell lines
The POL inhibitors (novobiocin, ART-558, and RP6685) were evaluated both individually and in combination with standard of care and investigational anticancer small molecules within a complex spheroid model of solid tumors. . Complex spheroids include a stromal component modeled by human endothelial cells (HUVEC) and fibroblasts modeled by human mesenchymal stem cells (MSCs). The concentration ranges selected for each drug and investigational agent were based upon clinically achievable concentrations if the clinical Cmax of the agent was known.
Compounds. The drugs and investigational agents: novobiocin (NSC847541), ART-558 (NSC835418), RP-6685 (NSC848927), peposertib (NSC802822), ceralasertib (NSC780249), elimusertib (NSC800525), camonsertib (NSC841442), AZD-1390 (NSC803789), olaparib (NSC753686), talazoparib (NSC767125), rucaparib (NSC756644), sotorasib (NSC818433), MRTX-1133 (NSC836407), SN-38 (NSC673596), topotecan (NSC609699), epotoside (NSC141540), doxorubicin (NSC123127), gemcitabine (NSC613327), 5-fluorouracil (NSC19893), paclitaxel (NSC125973), vemurafenib (NSC761431), MSA-2 (NSC828583), SN-011 (NSC837082), adavosertib (NSC754352), prexasertib (NSC758257), carboplatin (NSC241240) and oxaliplatin (NSC266046), were obtained from the National Cancer Institute (NCI) Developmental Therapeutics Program Chemical Repository (21). The FDA-approved anticancer drug set is available from the Developmental Therapeutics Program at https://dtp.cancer.gov/organization/dscb/obtaining/. […] The stock solutions were prepared in dimethyl sulfoxide (DMSO, Sigma-Aldrich, St. Louis, MO, cat. D2650), except for the platinum compounds which were prepared in saline (Quality Biological, Gaithersburg, MD, cat. 114-055-101), at 800-fold the tested concentration and stored at -70 degrees C prior to their use. All drugs and investigational agents were tested over a range starting from a high concentration at or near the clinical Cmax and decreasing in half-log increments. If the clinical Cmax for an agent had not been determined, the highest concentration tested was 10 microM, except for SN-38, which was tested at a high concentration of 1 microM.
Cell Culture. All cells were maintained in an incubator at 37 degrees C and 5% CO2 with 95% humidity. The PDC lines were cultured according to standard operating procedures established by the NCI PDMR (https://pdmr.cancer.gov). Table 3 of the manuscript, lists the cell lines along with the number of the three cell types plated to form the mct-spheroids and media for tumor cell growth. After thawing, all PDC lines, except 997537-175-T-J1-PDC and 415267-285-R-J2-PDC, were cultured in Matrigel-coated flasks prepared with a working solution of 1X Ham's F-12 nutrient mix, without supplementation (Thermo Fisher Scientific, cat. 11765054), 100 U/mL penicillin-streptomycin (Thermo Fisher Scientific, cat. 15140122), and 2.5% Matrigel (Corning Inc., Corning, NY, cat. 354248) for the first three passages. The two PDC lines 997537-175-T-J1-PDC and 415267-285-R-J2-PDC were cultured on uncoated flasks. The 857933-349-R-J2-PDC line was cultured in 6C/Colon 1B media containing advanced DMEM/F-12 (Thermo Fisher Scientific, cat. 12634028), 10 mM HEPES (Thermo Fisher Scientific, cat. 15630080), 1X GlutaMAX supplement (Thermo Fisher Scientific, cat. 35050061), 0.1 mg/mL primocin (InvivoGen, San Diego, CA, cat. ant-pm-2), 10% defined fetal bovine serum, heat inactivated (HyClone Laboratories Inc., Logan, UT, cat. SH30070.03HI), 50% L-WRN conditioned media (ATCC, cat. CRL-3276), 1.25 mM N-Acetyl-L-cysteine (Sigma-Aldrich, cat. A9165), 10 mM nicotinamide (Sigma-Aldrich, cat. N0636), 1X B-27 supplement (Thermo Fisher Scientific, cat. 17504044), 1X N-2 supplement (Thermo Fisher Scientific, cat. […]

[1] = second compound 0.0316 µM, first compound 0.0316 µM
[2] = second compound 0.0316 µM, first compound 0.1 µM
[3] = second compound 0.0316 µM, first compound 0.316 µM
[4] = second compound 0.0316 µM, first compound 1 µM
[5] = second compound 0.0316 µM, first compound 3.16 µM
[6] = second compound 0.0316 µM, first compound 10 µM
[7] = second compound 0.1 µM, first compound 0.0316 µM
[8] = second compound 0.1 µM, first compound 0.1 µM
[9] = second compound 0.1 µM, first compound 0.316 µM
[10] = second compound 0.1 µM, first compound 1 µM
[11] = second compound 0.1 µM, first compound 3.16 µM
[12] = second compound 0.1 µM, first compound 10 µM
[13] = second compound 0.316 µM, first compound 0.0316 µM
[14] = second compound 0.316 µM, first compound 0.1 µM
[15] = second compound 0.316 µM, first compound 0.316 µM
[16] = second compound 0.316 µM, first compound 1 µM
[17] = second compound 0.316 µM, first compound 3.16 µM
[18] = second compound 0.316 µM, first compound 10 µM
[19] = second compound 1 µM, first compound 0.0316 µM
[20] = second compound 1 µM, first compound 0.1 µM
[21] = second compound 1 µM, first compound 0.316 µM
[22] = second compound 1 µM, first compound 1 µM
[23] = second compound 1 µM, first compound 3.16 µM
[24] = second compound 1 µM, first compound 10 µM
[25] = second compound 3.16 µM, first compound 0.0316 µM
[26] = second compound 3.16 µM, first compound 0.1 µM
[27] = second compound 3.16 µM, first compound 0.316 µM
[28] = second compound 3.16 µM, first compound 1 µM
[29] = second compound 3.16 µM, first compound 3.16 µM
[30] = second compound 3.16 µM, first compound 10 µM
[31] = second compound 10 µM, first compound 0.0316 µM
[32] = second compound 10 µM, first compound 0.1 µM
[33] = second compound 10 µM, first compound 0.316 µM
[34] = second compound 10 µM, first compound 1 µM
[35] = second compound 10 µM, first compound 3.16 µM
[36] = second compound 10 µM, first compound 10 µM
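Throughout, for viability, T/C: spheroids exposed to drugs for seven days before readout.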

O=c1[nH]cc(F)c(=O)[nH]1 + Nc1ccc(C#CCN(C(=O)Cc2ncc(C(F)(F)F)cc2C(F)(F)F)c2ccc(F)cc2)nn1
IC50 (second compound 0.0316 µM): > 10 µM
IC50 (second compound 0.1 µM): > 10 µM
IC50 (second compound 0.316 µM): > 10 µM
IC50 (second compound 1 µM): > 10 µM
IC50 (second compound 3.16 µM): > 10 µM
IC50 (second compound 10 µM): > 10 µM
viability, T/C [1]: 101%
viability, T/C [2]: 94.7%
viability, T/C [3]: 92.9%
viability, T/C [4]: 92.9%
viability, T/C [5]: 95.4%
viability, T/C [6]: 85.5%
viability, T/C [7]: 103%
viability, T/C [8]: 110%
viability, T/C [9]: 103%
viability, T/C [10]: 89%
viability, T/C [11]: 82.4%
viability, T/C [12]: 93.4%
viability, T/C [13]: 92.4%
viability, T/C [14]: 109%
viability, T/C [15]: 101%
viability, T/C [16]: 101%
viability, T/C [17]: 111%
viability, T/C [18]: 92.6%
viability, T/C [19]: 110%
viability, T/C [20]: 107%
viability, T/C [21]: 108%
viability, T/C [22]: 89.5%
viability, T/C [23]: 94.3%
viability, T/C [24]: 90.6%
viability, T/C [25]: 107%
viability, T/C [26]: 87.3%
viability, T/C [27]: 82.8%
viability, T/C [28]: 82.3%
viability, T/C [29]: 80%
viability, T/C [30]: 82.4%
viability, T/C [31]: 81.9%
viability, T/C [32]: 86.2%
viability, T/C [33]: 84.6%
viability, T/C [34]: 81.9%
viability, T/C [35]: 88%
viability, T/C [36]: 76.7%

COc1cc2cc(C(=O)CCC(=O)O)sc2cc1OC + Cc1cccc(N(C)C(=O)C2C(O)CCN2c2nc(C)cc(C(F)(F)F)c2C#N)c1
IC50 (second compound 0.0316 µM): > 10 µM
IC50 (second compound 0.1 µM): > 10 µM
IC50 (second compound 0.316 µM): > 10 µM
IC50 (second compound 1 µM): > 10 µM
IC50 (second compound 3.16 µM): > 10 µM
IC50 (second compound 10 µM): > 10 µM
viability, T/C [1]: 95.8%
viability, T/C [2]: 83.5%
viability, T/C [3]: 95.1%
viability, T/C [4]: 98.8%
viability, T/C [5]: 96.4%
viability, T/C [6]: 92.4%
viability, T/C [7]: 91.1%
viability, T/C [8]: 91.4%
viability, T/C [9]: 84.9%
viability, T/C [10]: 83.7%
viability, T/C [11]: 94.4%
viability, T/C [12]: 85.2%
viability, T/C [13]: 97.2%
viability, T/C [14]: 92.4%
viability, T/C [15]: 90.1%
viability, T/C [16]: 96.6%
viability, T/C [17]: 88.8%
viability, T/C [18]: 89%
viability, T/C [19]: 81.7%
viability, T/C [20]: 84.2%
viability, T/C [21]: 88.1%
viability, T/C [22]: 93.5%
viability, T/C [23]: 91.8%
viability, T/C [24]: 86.4%
viability, T/C [25]: 89.9%
viability, T/C [26]: 83%
viability, T/C [27]: 98.5%
viability, T/C [28]: 98.4%
viability, T/C [29]: 96.3%
viability, T/C [30]: 82.3%
viability, T/C [31]: 95.7%
viability, T/C [32]: 90.6%
viability, T/C [33]: 92.1%
viability, T/C [34]: 89.7%
viability, T/C [35]: 90.9%
viability, T/C [36]: 86.1%
